From article PMC5285354, “Cationic Net Charge and Counter Ion Type as Antimicrobial Activity Determinant Factors of Short Lipopeptides” (Frontiers in Microbiology, 2017)
Where a SMILES comes first, the peptide text is derived from it. The star is where a group is joined. Myristoyl = CCCCCCCCCCCCCC(=O)*

Legend:
Assay type in all cases: cell-based
[1] = tested on: Aspergillus brasiliensis (ATCC 16404); conditions: ATCC 16404, 48 h
How it was run: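 CLSI broth microdilution: bacteria in Mueller-Hinton broth at 10^5 cfu/mL inoculum, 18 h at 37°C; fungi in Sabouraud Dextrose broth at 10^3 cfu/mL, 48 h at 25°C. MIC (μg/mL) is the lowest lipopeptide concentration inhibiting visible growth; triplicate on three days.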

[2] = tested on: Bacillus subtilis (ATCC 6633); conditions: for MIC Bacillus subtillis: ATCC 6633, 18 h; for MBC Bacillus subtillis: ATCC 6633, 24 h
How it was run: (§1)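 Lowest lipopeptide concentration (μg/mL) with no observable growth gave the MIC, alongside MBC/MFC, by CLSI microbroth dilution. Fungi: Sabouraud dextrose broth, 10^3 cfu/mL start, 25°C for 48 h; bacteria: MH broth, 10^5 cfu/mL, 37°C for 18 h. Run in triplicate, three separate days.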

[3] = tested on: Candida albicans (ATCC 10231); conditions: ATCC 10231, 48 h
How it was run: (§2)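 MIC in μg/mL, read as the lowest lipopeptide level with no observable growth. Microbroth dilution followed CLSI guidance, using MH broth, 10^5 cfu/mL and 18 h at 37°C for bacterial strains, or Sabouraud Dextrose broth, 10^3 cfu/mL and 48 h at 25°C for yeasts.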

[4] = tested on: Candida tropicalis (PCM 2681); conditions: PCM 2681, 48 h
How it was run: as §2

[5] = tested on: Enterococcus faecalis (ATCC 29212); conditions: for MBC Enterococcus fecalis, lipopeptides without TFA counter ion / MIC Enterococcus fecalis / MIC Enterococcus fecalis, lipopeptides without TFA counter ion: ATCC 29212, 18 h; for MBC Enterococcus fecalis: ATCC 29212, 24 h
How it was run: as §1

[6] = tested on: Escherichia coli (ATCC 25922); conditions: for MBC Escherichia coli, lipopeptides without TFA counter ion / MIC Escherichia coli / MIC Escherichia coli, lipopeptides without TFA counter ion: ATCC 25922, 18 h; for MBC Escherichia coli: ATCC 25922, 24 h
How it was run: as §2

[7] = tested on: Klebsiella pneumoniae (ATCC 700603); conditions: for MBC Klebsiella pneumoniae, lipopeptides without TFA counter ion / MIC Klebsiella pneumoniae / MIC Klebsiella pneumoniae, lipopeptides without TFA counter ion: ATCC 700603, 18 h; for MBC Klebsiella pneumoniae: ATCC 700603, 24 h
How it was run: as §2

[8] = tested on: Proteus vulgaris (PCM 2668); conditions: 18 h
How it was run: as §2

[9] = tested on: Pseudomonas aeruginosa (ATCC 9027); conditions: ATCC 9027, 18 h
How it was run: as §2

[10] = tested on: Staphylococcus aureus (ATCC 25923); conditions: for MBC Staphylococcus aureus, lipopeptides without TFA counter ion / MIC Staphylococcus aureus / MIC Staphylococcus aureus, lipopeptides without TFA counter ion: ATCC 25923, 18 h; for MBC Staphylococcus aureus: ATCC 25923, 24 h
How it was run: as §2

[11] = tested on: Staphylococcus epidermidis (PCM 2118); conditions: for MIC Staphylococcus epidermidis: PCM 2118, 18 h; for MBC Staphylococcus epidermidis: PCM 2118, 24 h
How it was run: as §1

human red blood cells = conditions: 1 h
Procedure: The hemolytic activity of the lipopeptides was determined by exposing human red blood cells (4% v/v) to tested compounds at graded concentrations. Red blood cells were obtained from a healthy donor. EDTA was used to prevent the blood clotting. The plasma was removed via centrifugation and the erythrocytes were washed three times with PBS. The red blood cells were suspended in PBS and incubated with different concentrations of lipopeptides at 37°C for 1 h and centrifuged for 5 min at 1000 × g. The supernatants were transferred to a sterile 96-well plate and hemoglobin release was measured with an Epoch microplate spectrophotometer (BioTek, USA) by recording the absorbance at 550 nm. A 0.1% Triton X-100 solution was used as the positive control (100% of hemolysis) and pure PBS as the negative (0% of hemolysis). Minimum hemolytic concentration (MHC) was taken as the lowest concentration which induced 10% of hemolysis.

[12] = tested on: Pseudomonas aeruginosa (ATCC 9027); conditions: ATCC 9027, 24 h
[13] = tested on: Proteus vulgaris (PCM 2668); conditions: 24 h
[14] = tested on: Candida albicans (ATCC 10231)

CCCCCCCCCCCCCC(=O)N[C@@H](CCCCN)C(N)=O [C14-K-NH2]
128 µg/mL: MBC Escherichia coli, lipopeptides without TFA counter ion [6] | MIC Escherichia coli [6] | MBC Escherichia coli [6] | MIC Pseudomonas aeruginosa [9]
>512 µg/mL: MFC Candida tropicalis [4] | MIC Candida tropicalis [4] | MIC Proteus vulgaris [8] | MBC Proteus vulgaris [13]
64 µg/mL: MBC Enterococcus fecalis, lipopeptides without TFA counter ion [5] | MIC Enterococcus fecalis [5] | MIC Enterococcus fecalis, lipopeptides without TFA counter ion [5] | MBC Enterococcus fecalis [5] | MIC Escherichia coli, lipopeptides without TFA counter ion [6] | MIC Klebsiella pneumoniae [7] | MIC Klebsiella pneumoniae, lipopeptides without TFA counter ion [7] | MBC Staphylococcus aureus, lipopeptides without TFA counter ion [10] | MIC Staphylococcus aureus [10] | MIC Staphylococcus aureus, lipopeptides without TFA counter ion [10] | MBC Staphylococcus aureus [10]
512 µg/mL: MFC Aspergillus brasiliensis [1] | MIC Aspergillus brasiliensis [1] | MFC Candida albicans [3] | MIC Candida albicans [3] | MIC Candida albicans, lipopeptides without TFA counter ion [3] | MBC Klebsiella pneumoniae, lipopeptides without TFA counter ion [7] | MBC Klebsiella pneumoniae [7] | Hemolysis HC10 (MHC), concentration of lipopeptide inducing 10% of hemolysis (human red blood cells) | MFC Candida albicans, lipopeptides without TFA counter ion [14]
1000 µg/mL: MBC Pseudomonas aeruginosa [12]
32 µg/mL: MIC Bacillus subtillis [2] | MBC Bacillus subtillis [2]
16 µg/mL: MIC Staphylococcus epidermidis [11] | MBC Staphylococcus epidermidis [11]

CCCCCCCCCCCCCC(=O)N[C@@H](CCCCN)C(=O)NCC(=O)N[C@@H](CCCCN)C(N)=O [C14-KGK-NH2] (Myristoyl-Lys-Gly-Lys-NH2)
32 µg/mL: MIC Pseudomonas aeruginosa [9]
8 µg/mL: MIC Bacillus subtillis [2] | MBC Bacillus subtillis [2]
>512 µg/mL: MIC Proteus vulgaris [8] | MBC Proteus vulgaris [13]
64 µg/mL: MBC Enterococcus fecalis, lipopeptides without TFA counter ion [5] | MIC Enterococcus fecalis [5] | MIC Enterococcus fecalis, lipopeptides without TFA counter ion [5] | MBC Enterococcus fecalis [5] | MBC Klebsiella pneumoniae, lipopeptides without TFA counter ion [7] | MIC Klebsiella pneumoniae [7] | MIC Klebsiella pneumoniae, lipopeptides without TFA counter ion [7] | MBC Klebsiella pneumoniae [7] | MBC Staphylococcus aureus, lipopeptides without TFA counter ion [10] | MIC Staphylococcus aureus [10] | MIC Staphylococcus aureus, lipopeptides without TFA counter ion [10] | MBC Pseudomonas aeruginosa [12]
128 µg/mL: MFC Aspergillus brasiliensis [1] | MIC Aspergillus brasiliensis [1] | MFC Candida albicans [3] | MIC Candida albicans [3] | MIC Candida albicans, lipopeptides without TFA counter ion [3] | MBC Escherichia coli, lipopeptides without TFA counter ion [6] | MIC Escherichia coli [6] | MIC Escherichia coli, lipopeptides without TFA counter ion [6] | MBC Escherichia coli [6] | MBC Staphylococcus aureus [10] | Hemolysis HC10 (MHC), concentration of lipopeptide inducing 10% of hemolysis (human red blood cells) | MFC Candida albicans, lipopeptides without TFA counter ion [14]
256 µg/mL: MFC Candida tropicalis [4] | MIC Candida tropicalis [4]
16 µg/mL: MIC Staphylococcus epidermidis [11] | MBC Staphylococcus epidermidis [11]
